In ChEMBL document CHEMBL1123942, “Effect of acyclic pyrimidines related to 9-[(1,3-dihydroxy-2-propoxy)methyl]guanine on herpesviruses” (J Med Chem, 1988):

Experiments:
Cytomegalovirus [1] = test: Inhibition of growth of human cytomegalovirus (HCMV) was determined by plaque reduction assay in human lung fibroblast cell line; format: functional, organism-based; details: Human betaherpesvirus 5, Fibroblast
Human alphaherpesvirus 3 = test: Inhibition of growth of varicella zoster virus(VZV) by plaque reduction assay in vero cell line; format: functional, organism-based; details: Human alphaherpesvirus 3, Vero
Cytomegalovirus [2] = test: Inhibition of growth of human cytomegalovirus (HCMV) was determined by plaque reduction assay in human foreskin fibroblast cell line; format: functional, organism-based; details: Human betaherpesvirus 5, Fibroblast
Human alphaherpesvirus 2 = test: Inhibition of growth of herpes simplex virus (HSV-2) by plaque reduction assay in vero cell line; format: functional, organism-based; details: Human alphaherpesvirus 2, Vero
Human alphaherpesvirus 1 [3] = test: (§1) Inhibition of growth of herpes simplex virus (HSV-1) by plaque reduction assay in vero cell line; format: functional, organism-based; details: Human alphaherpesvirus 1, Vero
Cytomegalovirus [4] = test: Inhibition of growth of human cytomegalovirus (HCMV) was determined by plaque reduction assay in Detroit cells; format: functional, organism-based; details: Human betaherpesvirus 5, Detroit
Human alphaherpesvirus 1 [5] = test: as §1; format: functional, organism-based, herpes simplex vir; details: Human alphaherpesvirus 1, Vero
Cytomegalovirus [6] = test: Inhibition of growth of human cytomegalovirus (HCMV) by plaque reduction assay in human lung fibroblast cell line; format: functional, organism-based; details: Human betaherpesvirus 5, Fibroblast

| Structure (SMILES) | IC50 (Cytomegalovirus [1]) [µM] | IC50 (Human alphaherpesvirus 3) [µM] | further results |
| --- | --- | --- | --- |
| Nc1nc(=O)ccn1COC(CO)CO | > 100 |  |  |
| Nc1ccn(COC(CO)CO)c(=S)n1 | > 100 |  |  |
| Cc1cn(COC(CO)CO)c(=O)[nH]c1=O | > 250 | > 100 |  |
| Nc1ncn(COC(CO)CO)c(=O)n1 | 100 |  | IC50 (Cytomegalovirus [2]): > 25 µM; IC50 (Human alphaherpesvirus 2): > 100 µM |
| O=c1ccn(COC(CO)CO)c(=O)[nH]1 | > 250 | > 100 |  |
| Nc1nc(=O)n(COC(CO)CO)cc1I | > 100 | > 100 |  |
| CN(C)c1ccn(COC(CO)CO)c(=O)n1 | > 100 | > 100 | IC50 (Human alphaherpesvirus 1 [3]): > 100 µM |
| Nc1nc2c(ncn2COC(CO)CO)c(=O)[nH]1 [GANCICLOVIR] | 3.4 | 2.8 | IC50 (Human alphaherpesvirus 2): 0.1 µM; IC50 (Human alphaherpesvirus 1 [3]): 0.1 µM |
| O=c1[nH]c(=O)n(COC(CO)CO)cc1Br | > 100 | > 100 |  |
| Nc1cn(COC(CO)CO)c(=O)[nH]c1=O |  | > 100 |  |
| CNc1ccn(COC(CO)CO)c(=O)n1 | > 100 |  |  |
| COC(=O)CC(CC(=O)OC)OC[n+]1ccc(N)nc1 | > 100 |  |  |
| Cc1cn(COC(CO)CO)c(=O)nc1N | > 100 | > 100 |  |
| Nc1nc(=O)n(COC(CO)CO)cc1F | 100 |  |  |
| O=c1[nH]c(=O)n(COC(CO)CO)cc1I [IODACYCLUR] |  | > 100 | IC50 (Cytomegalovirus [4]): > 100 µM; IC50 (Human alphaherpesvirus 1 [5]): > 100 µM |
| Nc1ccn(COC(CO)CO)c(=O)n1 |  | 17.1 | IC50 (Cytomegalovirus [6]): 11.2 µM; IC50 (Human alphaherpesvirus 2): 50 µM; IC50 (Human alphaherpesvirus 1 [3]): 140 µM |
